What all share (type): biochemical
One test concerns the target T1, GC-A (Rattus norvegicus, UniProt P18910).
T1 sequence (P18910 29-1057): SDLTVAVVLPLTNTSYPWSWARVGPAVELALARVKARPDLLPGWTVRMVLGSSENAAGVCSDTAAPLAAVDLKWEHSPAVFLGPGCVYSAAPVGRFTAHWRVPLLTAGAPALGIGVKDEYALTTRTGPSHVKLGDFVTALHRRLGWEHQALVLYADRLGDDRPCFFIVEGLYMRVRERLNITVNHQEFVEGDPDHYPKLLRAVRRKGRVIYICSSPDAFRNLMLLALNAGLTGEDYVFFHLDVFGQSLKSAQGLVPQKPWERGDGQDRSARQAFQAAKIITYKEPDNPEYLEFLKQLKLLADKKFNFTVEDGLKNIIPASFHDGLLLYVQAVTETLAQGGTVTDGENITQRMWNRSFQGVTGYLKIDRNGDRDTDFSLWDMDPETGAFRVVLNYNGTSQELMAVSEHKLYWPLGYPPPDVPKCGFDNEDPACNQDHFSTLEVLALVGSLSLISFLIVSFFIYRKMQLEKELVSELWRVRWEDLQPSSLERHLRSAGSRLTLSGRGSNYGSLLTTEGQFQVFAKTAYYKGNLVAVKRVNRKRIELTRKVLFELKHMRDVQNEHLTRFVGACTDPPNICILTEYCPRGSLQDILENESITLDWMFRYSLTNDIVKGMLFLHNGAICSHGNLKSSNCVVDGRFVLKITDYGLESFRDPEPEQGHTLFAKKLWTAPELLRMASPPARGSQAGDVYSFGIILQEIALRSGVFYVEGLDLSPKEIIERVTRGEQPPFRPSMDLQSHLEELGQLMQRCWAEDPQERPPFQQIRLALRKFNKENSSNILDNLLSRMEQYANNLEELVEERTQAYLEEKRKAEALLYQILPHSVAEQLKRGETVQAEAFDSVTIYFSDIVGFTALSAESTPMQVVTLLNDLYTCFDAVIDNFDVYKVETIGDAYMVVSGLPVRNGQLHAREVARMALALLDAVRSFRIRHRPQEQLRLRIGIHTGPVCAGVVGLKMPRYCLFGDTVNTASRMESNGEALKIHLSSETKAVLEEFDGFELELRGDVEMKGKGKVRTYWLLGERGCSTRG
T1 sequence (P01161 123-150 partner limits assumed): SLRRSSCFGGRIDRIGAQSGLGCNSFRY
As to the kind of experiment: GC assay. Particulars: for increase of ANP-stimulated GC-A activity by adenine nucleotide: saturating ANP; for EC50: EC50 for activation.

Another test has as its target GC-B (Rattus norvegicus, UniProt P16067). As to the kind of experiment: GC assay.
For a further test, the target named is endogenous GC-B (Mus musculus, UniProt Q6VVW5). As to the kind of experiment: GC assay in crude membranes from NIH 3T3 cells. Particulars: 125 nM CNP, 0.1 mM GTP.
The mark [1] stands for this setting: CNP-stimulated, presence of ATP.
[2] abbreviates: NP-stimulated, 9 min, 10 μM ATP.
The mark [3] stands for this setting: NP-stimulated, 9 min, 750 μM ATP.
The mark [4] stands for this setting: 1 μM ANP, 9 min, nucleotide at 1 mM.
Setting [5] is: NP-stimulated, 9 min, 100 μM ATP.
Where [6] appears, read: presence of CNP, absence of ATP, increasing Mg2+GTP.

As a reminder, the EC50 is the concentration that produces a half-maximal response. Usually Hill coefficient stands for a measure of the steepness of the concentration-response curve. The Km is the substrate concentration at which the rate is half of its maximum.

Sequence of GC-B (P16067 17-1047): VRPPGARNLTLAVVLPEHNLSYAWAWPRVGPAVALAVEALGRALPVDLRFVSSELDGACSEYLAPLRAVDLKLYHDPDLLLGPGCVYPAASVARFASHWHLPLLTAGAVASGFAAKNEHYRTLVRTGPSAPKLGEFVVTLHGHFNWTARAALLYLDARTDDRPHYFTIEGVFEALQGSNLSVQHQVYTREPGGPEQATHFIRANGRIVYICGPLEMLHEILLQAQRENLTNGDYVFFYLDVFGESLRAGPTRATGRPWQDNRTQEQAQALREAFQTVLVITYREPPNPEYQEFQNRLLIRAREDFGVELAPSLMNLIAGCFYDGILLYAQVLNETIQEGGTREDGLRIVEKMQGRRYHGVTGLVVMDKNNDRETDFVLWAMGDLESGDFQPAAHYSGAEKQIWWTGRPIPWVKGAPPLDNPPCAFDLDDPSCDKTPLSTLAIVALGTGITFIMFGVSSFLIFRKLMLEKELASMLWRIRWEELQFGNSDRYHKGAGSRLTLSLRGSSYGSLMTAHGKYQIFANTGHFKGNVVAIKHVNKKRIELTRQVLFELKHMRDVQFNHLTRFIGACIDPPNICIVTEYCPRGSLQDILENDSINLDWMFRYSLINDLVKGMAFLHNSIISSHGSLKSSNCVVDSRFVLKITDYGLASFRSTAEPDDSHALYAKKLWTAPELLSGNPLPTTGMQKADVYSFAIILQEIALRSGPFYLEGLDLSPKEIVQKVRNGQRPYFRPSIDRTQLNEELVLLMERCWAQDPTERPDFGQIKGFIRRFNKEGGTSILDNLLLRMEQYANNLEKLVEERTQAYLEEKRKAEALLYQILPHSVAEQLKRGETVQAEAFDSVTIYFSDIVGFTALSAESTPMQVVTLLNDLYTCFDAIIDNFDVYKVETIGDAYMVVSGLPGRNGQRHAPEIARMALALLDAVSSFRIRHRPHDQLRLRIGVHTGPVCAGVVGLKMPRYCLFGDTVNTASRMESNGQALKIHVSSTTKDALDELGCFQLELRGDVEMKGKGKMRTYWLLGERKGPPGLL
Sequence of GC-B (P55207 105-126 partner limits assumed): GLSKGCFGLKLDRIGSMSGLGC
Sequence of endogenous GC-B (Q6VVW5 17-1047): as the sequence (P16067 17-1047) above, with H100R, T188A, E385D, I449V, R1024Q counted along it

With `Nc1ncnc2c1ncn2[C@@H]1O[C@H](CO)[C@@H](O)[C@H]1O` [adenosine], on GC-A (0.1 mM GTP), the “increase of ANP-stimulated GC-A activity by adenine nucleotide” value is “failed to increase activity”.
`Nc1ncnc2c1ncn2[C@@H]1O[C@H](COP(=O)(O)OP(=O)(O)OP(=O)(O)O)[C@@H](O)[C@H]1O` [ATP, adenosine triphosphate]: the S0.5 at GC-B (setting [1]) worked out at 0.09 ± 0.02 mM; on GC-B (basal (no NP), presence of ATP) it was 1.0 ± 0.15 mM. Besides, the Vmax at GC-B (setting [1]) is reported as 41 ± 3.1 nmol mg^−1 (9 min)^−1; at GC-B (basal (no NP), presence of ATP) it was 4 ± 0.3 nmol mg^−1 (9 min)^−1. Besides, the EC50 was around 100 µM on GC-B (EC50 for ATP activation, approximate value stated in the discussion); 40 µM on GC-B (EC50 for activation, NP-stimulated, 0.1 mM GTP); 26 µM at GC-B (EC50 for activation, NP-stimulated, 0.3 mM GTP); 16 µM on GC-B (EC50 for activation, NP-stimulated, 0.9 mM GTP); 19 µM at GC-B (EC50 for activation, NP-stimulated, 5.4 mM GTP); 77 µM at GC-A (NP-stimulated, 0.1 mM GTP). Moreover, the EC50 stood at 38 µM at GC-A (NP-stimulated, 0.3 mM GTP); 38 µM on GC-A (NP-stimulated, 0.9 mM GTP); 16 µM on GC-A (NP-stimulated, 5.4 mM GTP). Further, the Hill coefficient on GC-B (setting [2]) was determined as 0.9 ± 0.13; at GC-B (setting [3]), 0.9 ± 0.24; at GC-B (absence of NPs, presence of ATP), 1.1; on GC-A (setting [2]), 1.2 ± 0.08; on GC-A (setting [5]), 0.9 ± 0.07. In addition, the Michaelis constant at GC-B (setting [2]) is recorded as 0.4 ± 0.11 mM; on GC-B (setting [3]), 0.2 ± 0.18 mM; at GC-A (setting [5]), 0.08 ± 0.010 mM. In addition, the Km is 100 ± 20 µM at GC-A (setting [4]) and around 100 µM at GC-A (NP-activated receptor, presence of ATP).
Regarding `Nc1ncnc2c1ncn2[C@@H]1O[C@H](COP(=O)(O)OP(=O)(O)O)[C@@H](O)[C@H]1O` [ADP, adenosine diphosphate], on GC-A (setting [4]), the Hill coefficient is reported as 1.1 ± 0.18 and the Km was found to be 200 ± 40 µM.
Turning to `Nc1ncnc2c1ncn2[C@@H]1O[C@H](COP(=O)(O)O)[C@@H](O)[C@H]1O` [AMP, adenosine monophosphate], the “increase of ANP-stimulated GC-A activity by adenine nucleotide” value on GC-A (0.1 mM GTP) is given as “failed to increase activity”.
With C-type natriuretic peptide [CNP], in the test with endogenous GC-B (absence of ATP), the “increase of GC-B activity” value was “no statistically significant increase in activity”. Also, in the test with endogenous GC-B (presence of 1 mM ATP), the “increase of GC-B activity” value is reported as “more than fourfold”. Also, the “increase of maximal velocity” value in the test with GC-B (absence of ATP) amounted to 13 fold. For the same compound, in the test with GC-B (setting [6]), the S0.5 is 1.0 ± 0.15 mM and the Vmax is 49 ± 3.7 nmol mg^−1 (9 min)^−1.
Consider `Nc1ncnc2c1ncn2[C@H]1C[C@H](O)[C@@H](COP(=O)(O)OP(=O)(O)OP(=O)(O)O)O1` [2′-deoxy-ATP], for which, at GC-A (setting [4]), the Hill coefficient came out at 1.2 ± 0.24 and the Km was determined as 400 ± 80 µM. The “activation of GC-A compared with ATP” value at GC-A (single-substrate concentration GC assays, 0.1 mM GTP, ANP) is given as “poorer activator of GC-A than was ATP”.

(Values after paper PMC4411398 (Science signaling, 2012).)
